Data taken from patent US20240043420A1, “7-AZAINDOLE COMPOUNDS FOR INHIBITION OF BCR-ABL TYROSINE KINASES” (EnLiven Therapeutics, Inc., priority 2020, published 2024).

What was measured:
K562 cells = assay: K562 cell proliferation assay (CellTiter-Glo); type: cell-based; conditions: Homo sapiens, K562, 72 h, CellTiter-Glo viability, read-out: Cell Line (IC50, nM) K562
Procedure, shortened: (§1)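 Cells in IMDM/10% FBS seeded at 2,000 (K562) or 1,500 (HL60) per well, exposed to serially diluted compounds for 72 h at 37 °C, 5% CO2. Viability by CellTiter-Glo luminescence, normalized between DMSO (high) and cell-free media (low) controls.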

HL60 cells = assay: HL60 cell proliferation assay (CellTiter-Glo); type: cell-based; conditions: Homo sapiens, HL-60, 72 h, CellTiter-Glo viability, read-out: Cell Line (IC50, nM) HL60
Procedure, shortened: as §1

ABL1 = target: T1, ABL1 (Homo sapiens, UniProt P00519); assay: Luminescence-based ABL kinase assay (ADP-Glo, 300 μM ATP); type: biochemical
T1 construct: purchased Carna Biosciences
Procedure, shortened: (§2)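 Buffer: 50 mM HEPES pH 7.5, 10 mM MgCl2, 1 mM EGTA, 2 mM DTT, 0.05% BSA. Compound preincubated 30 min at RT with kinase (3.325 nM in enzyme solution), then started with a Peptide 2 (6 μM) and ATP (1.2 mM) solution, both stock levels; 90 min at RT.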

ABL1 (T315I) = ABL1 (T315I) (Homo sapiens, UniProt P00519, T315I); assay: Luminescence-based ABL kinase assay (ADP-Glo, 300 μM ATP), T315I mutant; type: biochemical
Procedure, shortened: as §2

pCRKL in K562 cells = assay: pCRKL ELISA assay in K562 cells; type: cell-based; conditions: Homo sapiens, 1.5 h, 90 minutes incubation, read-out: PCRKL ELISA, Cell Line IC50 (nM) K562
Description: K562 or Ba/F3 ABL T315I cells (2.0*10^5 cells/100 μl/well) were seeded in 96 well (Corning, cat #3799). Compounds were dissolved in DMSO, serially diluted in DMSO and then were added, mixed, and incubated for 90 minutes at 37° C., 5% CO2. Following the 90-minute incubation, plates were centrifuged for 5 min at 3000 RPM and supernatant was removed from each well. Cells were washed 3 times with 150 μl PBS prior to addition of 100 μl cell RIPA lysis buffer (Boston BioProducts, cat #BP-115D) supplied with 1×complete ULTRA cocktail inhibitor (Roche, 05892791001) and 1×PhosSTOP Phosphatase Inhibitor Cocktail Tablets (Roche, 04906837001). Cells were incubated with lysis buffer for 1 hour at 4° C. prior to storage at −80 C.
A capture antibody able to detect phosphorylated and non-phosphorylated CRKL (R&D Systems, cat #AF5127) was added to Meso Scale Discovery (MSD) standard bind plates (MSD, cat #L15XA-3) at 5 ug/mL and incubated at 4° C. overnight. The next day, plates were washed with PBS+0.05% Tween20 (PBST) and 150 μl of 5% BSA blocking solution was added for 1 hour at room temperature with shaking. Plates were washed with PBST. Lysates were thawed and 30 μl of lysate was added to the MSD plates and incubated for 2 hours at room temperature with shaking. MSD plates were washed with PBST and 30 μl of a detection antibody that binds phosphorylated pCRKL (R&D Systems, cat #MAB6910) was added at 1 μg/mL to each well. Plates were incubated for 1 hour at room temperature with shaking. Plates were washed with PBST prior to addition of 30 μl of a sulfo tagged goat anti mouse detection antibody (MSD cat #R32AC-1). Plates were incubated for 1 hour at room temperature with shaking. Plates were washed with PBST prior to addition of 150 ul of 1×MSD read buffer T (MSD, cat 4R92TC-2). Electrochemiluminescence (ECLU) was read on an MSD plate reader (Meso Scale Discovery). The remaining activity by calculated as follows: 00 Relative activity=100×(ELCUsample−ECLULC)/(ECLUHC−ECLULC). The low and high controls (LC/HC) are generated from lysate from wells without cells or with cells treated with 0.1% DMSO, respectively. IC50 values were calculated using XLFit software using a nonlinear regression model with a sigmoidal dose response and are shown in Table 4 and Table 5 below.

Structure (SMILES) | IC50 (K562 cells) | IC50 (HL60 cells) | IC50 (ABL1) | IC50 (ABL1 (T315I)) | IC50 (pCRKL in K562 cells)
COc1ccccc1-c1c[nH]c2nc(NC(=O)NCCN3CCN(C)CC3)ccc12 [Compound 42, 3-[3-(2-methoxyphenyl)-1H-pyrrolo[2,3-b]pyridin-6-yl]-1-[2-(4-methylpiperazin-1-yl)ethyl]urea] | 254 nM | > 10000 nM | 45.4 nM | 12.7 nM | 88.3 nM
COc1ccccc1-c1n[nH]c2nc(NC(=O)C3CC3)ccc12 [Compound 44, N-[3-(2-methoxyphenyl)-1H-pyrazolo[3,4-b]pyridin-6-yl]cyclopropanecarboxamide] | 151 nM | > 10000 nM | 23.1 nM | 39.8 nM | 275 nM
CCOc1ncccc1-c1c[nH]c2nc(NC(=O)C3CC3)ccc12 [Compound 47, N-[3-(2-ethoxypyridin-3-yl)-1H-pyrrolo[2,3-b]pyridin-6-yl]cyclopropanecarboxamide] | 292 nM | > 10000 nM | 7.47 nM | 0.705 nM | 685 nM
COc1cc2[nH]cnc2cc1-c1c[nH]c2nc(NC(=O)[C@@H]3C[C@@H]3F)ccc12 [Compound 49, (1S,2S)-2-fluoro-N-[3-(6-methoxy-1H-1,3-benzodiazol-5-yl)-1H-pyrrolo[2,3-b]pyridin-6-yl]cyclopropane-1-carboxamide] | 295 nM | > 10000 nM | 4.33 nM | 3.04 nM | 585 nM
COc1cc2[nH]ncc2cc1-c1c[nH]c2nc(NC(=O)[C@@H]3C[C@@H]3F)ccc12 [Compound 50, (1S,2S)-2-fluoro-N-[3-(6-methoxy-1H-indazol-5-yl)-1H-pyrrolo[2,3-b]pyridin-6-yl]cyclopropane-1-carboxamide] | 120 nM | > 10000 nM | 3.9 nM | 2.51 nM | 151 nM
COc1c(-c2c[nH]c3nc(NC(=O)[C@H]4C[C@H]4F)ccc23)ccc2[nH]cnc12 [Compound 51, (1R,2R)-2-fluoro-N-[3-(4-methoxy-1H-1,3-benzodiazol-5-yl)-1H-pyrrolo[2,3-b]pyridin-6-yl]cyclopropane-1-carboxamide] | 668 nM | > 10000 nM | 15.4 nM | 4.41 nM | 1350 nM
COc1cc2[nH]cnc2cc1-c1c[nH]c2nc(NC(=O)[C@H]3C[C@H]3F)ccc12 [Compound 52, (1R,2R)-2-fluoro-N-[3-(6-methoxy-1H-1,3-benzodiazol-5-yl)-1H-pyrrolo[2,3-b]pyridin-6-yl]cyclopropane-1-carboxamide] | 829 nM | > 10000 nM | 8.95 nM | 13.7 nM | 3120 nM
COc1cc2[nH]ncc2cc1-c1c[nH]c2nc(NC(=O)[C@H]3C[C@H]3F)ccc12 [Compound 53, (1R,2R)-2-fluoro-N-[3-(6-methoxy-1H-indazol-5-yl)-1H-pyrrolo[2,3-b]pyridin-6-yl]cyclopropane-1-carboxamide] | 267 nM | 3110 nM | 6.92 nM | 5.63 nM | 584 nM
O=C(Nc1ccc2c(-c3ccc4nccn4c3)c[nH]c2n1)C1CC1 [Compound 56, N-(3-(imidazo[1,2-a]pyridin-6-yl)-1H-pyrrolo[2,3-b]pyridin-6-yl)cyclopropanecarboxamide] | 183 nM | 120 nM | 30.3 nM | 53.5 nM | 745 nM
COc1cc2cn[nH]c2cc1-c1c[nH]c2nc(NC(=O)[C@@H]3C[C@@H]3F)ccc12 [Compound 58, (1S,2S)-2-fluoro-N-[3-(5-methoxy-1H-indazol-6-yl)-1H-pyrrolo[2,3-b]pyridin-6-yl]cyclopropane-1-carboxamide] | 132 nM | > 10000 nM | 2.92 nM | 3.4 nM | 281 nM
COc1nc2nc[nH]c2cc1-c1c[nH]c2nc(NC(=O)C3CC3)ccc12 [Compound 61, N-(3-[5-methoxy-1H-imidazo[4,5-b]pyridin-6-yl]-1H-pyrrolo[2,3-b]pyridin-6-yl)cyclopropanecarboxamide] | 36.9 nM | > 10000 nM | 3.28 nM | 5.08 nM | 88.4 nM
CCOc1ncccc1-c1c[nH]c2nc(NC(=O)[C@@H]3C[C@@H]3F)ccc12 [Compound 62, (1S,2S)—N-(3-(2-ethoxypyridin-3-yl)-1H-pyrrolo[2,3-b]pyridin-6-yl)-2-fluorocyclopropane-1-carboxamide] | 137 nM | > 10000 nM | 20.8 nM | 43 nM | 171 nM
CCOc1ncccc1-c1c[nH]c2nc(NC(=O)[C@H]3C[C@H]3F)ccc12 [Compound 63, (1R,2R)—N-(3-(2-ethoxypyridin-3-yl)-1H-pyrrolo[2,3-b]pyridin-6-yl)-2-fluorocyclopropane-1-carboxamide] | 255 nM | > 10000 nM | 40.7 nM | 64.5 nM | 328 nM
COc1cccc(F)c1-c1n[nH]c2nc(NC(=O)[C@@H]3C[C@@H]3F)ccc12 [Compound 66, (1S,2S)-2-fluoro-N-[3-(2-fluoro-6-methoxyphenyl)-1H-pyrazolo[3,4-b]pyridin-6-yl]cyclopropane-1-carboxamide] | 603 nM | > 10000 nM | 91.5 nM | 38.7 nM | 702 nM
COc1ncc(F)cc1-c1n[nH]c2nc(NC(=O)[C@@H]3C[C@@H]3F)ccc12 [Compound 74, (1S,2S)-2-fluoro-N-[3-(5-fluoro-2-methoxypyridin-3-yl)-1H-pyrazolo[3,4-b]pyridin-6-yl]cyclopropane-1-carboxamide] | 351 nM | > 10000 nM | 55.6 nM | 63 nM | 572 nM
COc1ncccc1-c1n[nH]c2nc(NC(=O)[C@@H]3C[C@@H]3F)ccc12 [Compound 77, (1S,2S)-2-fluoro-N-[3-(2-methoxypyridin-3-yl)-1H-pyrazolo[3,4-b]pyridin-6-yl]cyclopropane-1-carboxamide] | 727 nM | > 10000 nM | 106 nM | 137 nM | 1120 nM
COc1cc2[nH]ncc2cc1-c1n[nH]c2nc(NC(=O)[C@@H]3C[C@@H]3F)ccc12 [Compound 82, (1S,2S)-2-fluoro-N-[3-(6-methoxy-1H-indazol-5-yl)-1H-pyrazolo[3,4-b]pyridin-6-yl]cyclopropane-1-carboxamide] | 437 nM | > 10000 nM | 13.5 nM | 20.5 nM | 1050 nM
COc1cccc(OC)c1-c1c[nH]c2nc(NC(=O)NCCCN(C)C)ccc12 [Compound 131, 1-[3-(2,6-dimethoxyphenyl)-1H-pyrrolo[2,3-b]pyridin-6-yl]-3-[3-(dimethylamino)propyl]urea] | 83.3 nM | > 10000 nM | 42.7 nM | 28.1 nM | 272 nM
COc1c(-c2c[nH]c3nc(NC(=O)[C@@H]4C[C@@H]4F)ccc23)cc2scnc2c1F [Compound 133, (1S,2S)-2-fluoro-N-[3-(4-fluoro-5-methoxy-1,3-benzothiazol-6-yl)-1H-pyrrolo[2,3-b]pyridin-6-yl]cyclopropane-1-carboxamide] | 9.36 nM | 4040 nM | 3.57 nM | 6.1 nM | 278 nM
COc1cccc(OC)c1-c1c[nH]c2nc(NC(=O)NCCN3CCNCC3)ccc12 [Compound 135, 3-[3-(2,6-dimethoxyphenyl)-1H-pyrrolo[2,3-b]pyridin-6-yl]-1-[2-(piperazin-1-yl)ethyl]urea] | 165 nM | > 10000 nM | 24.9 nM | 15.8 nM | 1210 nM
